# Test results: PubChem BioAssay AID1845210 (Molecular Pharmacology Branch, DTP, NCI, 2023)
# Tested on: NCI-H226 complex tumor spheroids, viability
# Experiment: Anticancer human tumor NCI-H226 cell line growth inhibition;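 also: spheroids exposed to compound for 7 days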;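 as to viability, T/C: 100% = DMSO vehicle control viability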
# Conditions: for IC50: curve of first compound; for viability, T/C: stronger effect = lower value
# From the text: Multicellular complex tumor spheroid response to DNA repair inhibitors in combination with DNA-damaging drugs
# This study explores the anticancer activities of DNA-damaging drugs and inhibitors of DNA damage repair, both as single agents and in combinations. Complex tumor spheroids comprised of malignant cells, endothelial cells and mesenchymal stem cells served as an in vitro model for human solid tumors. This model system incorporates physiologically relevant features and patient-derived or established malignant cell lines with clinically relevant genetic alterations from many tumor types. Twenty-six patient-derived or established malignant cell lines were evaluated representing sarcoma, melanoma, small cell lung cancer (SCLC), non-small cell lung cancer (NSCLC), as well as bladder, ovarian and pancreatic cancers. The concentration ranges selected for each drug and investigational agent were based upon clinically achievable concentrations if the clinical Cmax of the agent was known.
# Compounds. The drugs and compounds olaparib (NSC753686), talazoparib (NSC767125), berzosertib (NSC777718), elimusertib (NSC800525), nedisertib (NSC802822), VX-984 (NSC792969), AZD-1390 (NSC803789), temozolomide (NSC362856), topotecan (NSC609699), trabectedin (NSC813783), staurosporine (NSC755774), and gemcitabine (NSC613327) were obtained from the National Cancer Institute (NCI) Developmental Therapeutics Program Chemical Repository. The FDA-approved anticancer drug set is available from the Developmental Therapeutics Program at https://dtp.cancer.gov/organization/dscb/obtaining/available_plates.htm. […] The stock solutions were prepared in dimethyl sulfoxide (DMSO, Sigma-Aldrich, St. Louis, MO, cat. D2650) at 400-fold the tested concentration and stored at -70 degrees C. Prior to their use, the stock solutions were diluted in fresh medium and the final DMSO concentration in the assay was 0.25% (v/v). All drugs and investigational agents were tested over a range starting from a high concentration at or near the clinical Cmax and decreasing in half-log increments. If the clinical Cmax for an agent had not been determined, the highest concentration tested was 10 microM.
# Cell Lines. The patient-derived cancer cell (PDC) lines: 156681-154-R-J1-PDC, 283228-195-R-J1-PDC, 287954-098-R-J1-PDC, 292921-168-R-J2-PDC, 349418-098-R-PDC, 425362-245-T-J1-PDC, 556581-035-R-J1-PDC, and BL0293-F563-PDC were received from the NCI Patient-Derived Models Repository (PDMR, https://pdmr.cancer.gov). The established cell lines HS-SY-2 (RRID:CVCL_8719), MPNST, and SYO-1 (RRID:CVCL_7146) were obtained from the Sloan Kettering Institute. The alveolar soft parts sarcoma cell line ASPS-1 (RRID:CVCL_S738) was established at the NCI and grown from internal seed stocks. The following established cell lines were purchased from the American Type Culture Collection (ATCC, Manassas, VA): G-401 (ATCC, cat. CRL-1441, RRID:CVCL_0270), SW982 (ATCC, cat. HTB-93, RRID:CVCL_1734), VA-ES-BJ (ATCC, cat. CRL-2138, RRID:CVCL_1785), NCI-H719 (ATCC, cat. CRL-5837, RRID:CVCL_1582), NCI-H196 (ATCC, cat. CRL-5823, RRID:CVCL_1509), NCI-H841 (ATCC, cat. CRL-5845, RRID:CVCL_1595), NCI-H1618 (ATCC, cat. CRL-5879, RRID:CVCL_1480), NCI-H1876 (ATCC, cat. CRL-5902, RRID:CVCL_1503), DMS 114 (ATCC, cat. CRL-2066; RRID:CVCL_1174), NCI-H211 (ATCC, cat. CRL-5824; RRID:CVCL_1529), and SW 1271 (ATCC, cat. CRL-2177, RRID:CVCL_1716). The small cell lung cancer cell line COR-L88 was purchased from Sigma-Aldrich (cat. 92031917-1VL, RRID:CVCL_1141). The non-small cell lung cancer cell lines NCI-H226 (RRID:CVCL_1544) and NCI-H322M (RRID:CVCL_1557) were established at the NCI and grown from internal seed stocks. Pooled donor human umbilical vein endothelial cells (HUVEC, Lonza, cat. CC-2519) and human mesenchymal stem cells (hMSC, Lonza, cat. PT-2501) were purchased from Lonza (Walkersville, MD).
# Cell Culture. All cells were maintained in an incubator at 37 degrees C and 5% CO2 with 95% humidity. […]
# [1] = second compound 0.003 µM, first compound 0.0316 µM
# [2] = second compound 0.003 µM, first compound 0.1 µM
# [3] = second compound 0.003 µM, first compound 0.316 µM
# [4] = second compound 0.003 µM, first compound 1 µM
# [5] = second compound 0.003 µM, first compound 3.16 µM
# [6] = second compound 0.003 µM, first compound 10 µM
# [7] = second compound 0.00949 µM, first compound 0.0316 µM
# [8] = second compound 0.00949 µM, first compound 0.1 µM
# [9] = second compound 0.00949 µM, first compound 0.316 µM
# [10] = second compound 0.00949 µM, first compound 1 µM
# [11] = second compound 0.00949 µM, first compound 3.16 µM
# [12] = second compound 0.00949 µM, first compound 10 µM
# [13] = second compound 0.03 µM, first compound 0.0316 µM
# [14] = second compound 0.03 µM, first compound 0.1 µM
# [15] = second compound 0.03 µM, first compound 0.316 µM
# [16] = second compound 0.03 µM, first compound 1 µM
# [17] = second compound 0.03 µM, first compound 3.16 µM
# [18] = second compound 0.03 µM, first compound 10 µM
# [19] = second compound 0.0949 µM, first compound 0.0316 µM
# [20] = second compound 0.0949 µM, first compound 0.1 µM
# [21] = second compound 0.0949 µM, first compound 0.316 µM
# [22] = second compound 0.0949 µM, first compound 1 µM
# [23] = second compound 0.0949 µM, first compound 3.16 µM
# [24] = second compound 0.0949 µM, first compound 10 µM
# [25] = second compound 0.3 µM, first compound 0.0316 µM
# [26] = second compound 0.3 µM, first compound 0.1 µM
# [27] = second compound 0.3 µM, first compound 0.316 µM
# [28] = second compound 0.3 µM, first compound 1 µM
# [29] = second compound 0.3 µM, first compound 3.16 µM
# [30] = second compound 0.3 µM, first compound 10 µM
Compound,IC50 (second compound 0.003 µM) [µM],IC50 (second compound 0.00949 µM) [µM],IC50 (second compound 0.03 µM) [µM],IC50 (second compound 0.0949 µM) [µM],IC50 (second compound 0.3 µM) [µM],"viability, T/C [1] [%]","viability, T/C [2] [%]","viability, T/C [3] [%]","viability, T/C [4] [%]","viability, T/C [5] [%]","viability, T/C [6] [%]","viability, T/C [7] [%]","viability, T/C [8] [%]","viability, T/C [9] [%]","viability, T/C [10] [%]","viability, T/C [11] [%]","viability, T/C [12] [%]","viability, T/C [13] [%]","viability, T/C [14] [%]","viability, T/C [15] [%]",further results
CC1COCCN1c1cc(-c2ccnn2C)c2ccnc(-c3ccn[nH]3)c2n1 (stereo not given) + CC[C@@]1(O)C(=O)OCc2c1cc1n(c2=O)Cc2cc3c(CN(C)C)c(O)ccc3nc2-1,1.04,1.09,0.823,0.814,0.518,97.2,81.5,74,47.6,39.2,36.1,93.8,85.1,69.3,52.5,36.1,33.4,83.1,76.3,63.6,"viability, T/C [16]: 48.1%; viability, T/C [17]: 36.8%; viability, T/C [18]: 37.9%; viability, T/C [19]: 82.2%; viability, T/C [20]: 71.3%; viability, T/C [21]: 65.1%; viability, T/C [22]: 46.1%; viability, T/C [23]: 37.4%; viability, T/C [24]: 34.9%; viability, T/C [25]: 71.2%; viability, T/C [26]: 66.9%; viability, T/C [27]: 56.8%; viability, T/C [28]: 41.4%; viability, T/C [29]: 36.3%; viability, T/C [30]: 38.1%"
COc1cc(C)[nH]c(=O)c1CN1CCc2c(Cl)cc(C(OC)C3COC3)c(Cl)c2C1=O (stereo not given) + CC[C@@]1(O)C(=O)OCc2c1cc1n(c2=O)Cc2cc3c(CN(C)C)c(O)ccc3nc2-1,> 10,> 10,> 10,> 10,> 10,93.7,123,110,122,112,98.5,88.6,102,100,95.8,99.2,97.3,86.4,87,80.6,"viability, T/C [16]: 92.7%; viability, T/C [17]: 92.6%; viability, T/C [18]: 87.4%; viability, T/C [19]: 97.3%; viability, T/C [20]: 93.1%; viability, T/C [21]: 86.4%; viability, T/C [22]: 92.9%; viability, T/C [23]: 88.3%; viability, T/C [24]: 81.6%; viability, T/C [25]: 71.4%; viability, T/C [26]: 73.3%; viability, T/C [27]: 72%; viability, T/C [28]: 75.2%; viability, T/C [29]: 69.9%; viability, T/C [30]: 72.9%"
Cc1cc(C)c(CNC(=O)c2cc(-c3ccc(CN4CCOCC4)cc3)cc3c2cnn3C2CCCC2)c(=O)[nH]1 + CC[C@@]1(O)C(=O)OCc2c1cc1n(c2=O)Cc2cc3c(CN(C)C)c(O)ccc3nc2-1,> 10,> 10,> 10,> 10,> 10,101,96.8,98.3,85.3,95.7,108,87.2,88.8,92.4,82.9,78.6,96.3,91.8,78.3,87.6,"viability, T/C [16]: 88.9%; viability, T/C [17]: 79.7%; viability, T/C [18]: 95.3%; viability, T/C [19]: 70.7%; viability, T/C [20]: 72.9%; viability, T/C [21]: 71%; viability, T/C [22]: 77.5%; viability, T/C [23]: 76.1%; viability, T/C [24]: 106%; viability, T/C [25]: 64%; viability, T/C [26]: 62.4%; viability, T/C [27]: 67%; viability, T/C [28]: 68.5%; viability, T/C [29]: 79.8%; viability, T/C [30]: 95.2%"
[2H]c1nc(C)nc([2H])c1-c1cc(NC[C@@H](C)c2cccc3c(C(=O)NC)ccnc23)ncn1 + CC[C@@]1(O)C(=O)OCc2c1cc1n(c2=O)Cc2cc3c(CN(C)C)c(O)ccc3nc2-1,> 10,> 10,> 10,> 10,> 10,89.6,93.2,92.6,82,79.5,88.1,86.8,88.3,93,86.7,84.3,88.5,79,82,84.3,"viability, T/C [16]: 79%; viability, T/C [17]: 81.5%; viability, T/C [18]: 73%; viability, T/C [19]: 88.8%; viability, T/C [20]: 89%; viability, T/C [21]: 85.1%; viability, T/C [22]: 83%; viability, T/C [23]: 80.5%; viability, T/C [24]: 86.5%; viability, T/C [25]: 59.8%; viability, T/C [26]: 70.4%; viability, T/C [27]: 65.5%; viability, T/C [28]: 71.9%; viability, T/C [29]: 59.5%; viability, T/C [30]: 60.7%"
